Read-outs that look alike come from different tables or passages of the source. Non-standard residues stand in square brackets, D forms with d. Residues, ends and D or L forms follow the SMILES beside them. No end group written: not given here. *: point of attachment. Bpa = N[C@@H](Cc1ccc(C(=O)c2ccccc2)cc1)C(=O)O; Myristoyl = CCCCCCCCCCCCCC(=O)*
Experiments:
D. melanogaster heart = format: in vivo, Drosophila melanogaster; settings: for heart rate, % of the basal contraction rate: within 1 minute; for EC50: in vivo, maximal effect 1 minute after microinjection, read-out: best-fit EC50, decrease of heart rate; for effect on fly heart rate / contractility (in words): DMS analogs
Method: D. melanogaster Oregon R wild-type strain flies were maintained on cornmeal molasses media at 24° C. under a 12 hour light/dark cycle. The animals selected for analysis were larvae, prepupae, or adults; both females and males were analyzed and no difference in response was observed. An animal was positioned onto double-stick tape adhered to a microscope stage and heart rate was monitored for 2 minutes before and 10 minutes after saline (control) or peptide was delivered as previously described (Nichols, R. Et al. (1999), Zornik, E. et al. (1999)). A drawn-out micropipette was used to deliver saline or peptide (40 ηl) into the hemolymph (blood) at a site anterior to the brain to avoid tissue damage to the central nervous system and dorsal vessel (aorta and heart). Each animal received only one microinjection of saline or peptide. In some cases, recordings were extended up to 1 hour to establish the return to baseline. Data were averaged from several animals (n≧10) and reported relative to the basal heart rate.
The influence of DMS (Dromyosuppressin peptide; […]amide—SEQ ID NO: 1) on in vivo heart rate in D. melanogaster was compared to physiological saline to evaluate dose-dependent effects of myosuppressin in cardiac function in a model amenable to molecular genetics. […] The dose-dependent effects of dromyosuppressin reported were evaluated in pupae because the animals are immobile and, thus, this developmental stage is the easiest to observe and record heart contractions. The effects of DMS were measured over a range of ten-fold concentrations from 10^−6 M to 10^−11 M and compared to the influence of physiological saline (mean±SEM; 91±3% basal contraction rate at 1 minute; n=18). […] Significant reductions in heart rate were detected in response to DMS concentrations of 10^−9 M and higher, and the peak responses were observed within 1 minute of microinjection of the peptide. The DMS-induced effects typically were observed over 2-3 minutes, and were reversible, returning to approximately basal contraction rate levels in about 5 minutes in response to 10^−8 M and 10^−9 M. At the highest concentrations tested, 10^−6 M and 10^−7 M, DMS decreased heart rate to 25±11% (n=14) and 25±7% (n=16), respectively, within 1 minute. The DMS-induced effects were sustained for 3-5 minutes before they returned to approximately basal contraction rate levels within 30 minutes.

Protophormia terraenovae = assay: Cardiac arrest in intact blowfly (electrocardiograms); format: in vivo
Method: In order to determine the effect of DMS on cardiac arrest in a larger invertebrate various concentrations of DMS were applied to intact Protophormia terraenovae, a blowfly, and electrocardiograms were recorded continuously [Angioy et al. 2007]. […] Signal resumed in animals; the recovery time shortened at lower DMS concentrations.

[1] = tested on: isolated adult rat cardiac myocytes; format: cell-based; settings: for ability to bind and affect myocyte contractile function: 10^−8M, individually administered; for % Change baseline SL / % Change dep v (shortening rate) / % Change peak h (shortening amplitude) / % Change ret v (re-lengthening rate): 10^−8 M; for character relative to hRFRP-1 on myocyte contractile function (agonist, antagonist, reverse agonist; in words): peptides at 10^−8M or 10^−7M, peak shortening, departure and return velocity
From the text: Adult rat and rabbit ventricular cardiac myocytes were isolated as previously described (Westfall, M. V. Et al. (1997), Westfall, M. V. and Borton, A. R. (2003)). Hearts from Sprague-Dawley rats and New Zealand white rabbits were perfused and enzymatically digested to isolate myocytes; the protocol was approved by The University of Michigan University Committee on Use and Care of Animals (UCUCA) in accordance with university and federal regulatory guidelines. Aliquots of isolated ventricular myocytes were plated on laminin-coated glass coverslips in serum-containing Dulbecco's Modified Eagle Media (Invitrogen, CA, US) supplemented with 5% fetal bovine serum, and 50 U/ml penicillin and 50 μg/ml streptomycin (pen/strep; Sigma-Aldrich, MO, US). Two hours later, media was replaced with serum-free M199 (Invitrogen) supplemented with 1.8 mM Ca^2+, 10 mM HEPES, 10 mM glutathione, and pen/strep. Rat myocytes were transferred to a stimulation chamber and electrically paced the day after isolation (Zornik, E. Et al. (1999), Westfall, M. V. Et al. (1997)). Media was changed daily for all myocyte preparations.
Sarcomere shortening was detected using a video-based detection system (IonOptix, MA, USA) as described earlier (Westfall, M. V. and Borton, A. R. (2003)). Rat myocytes were paced at 0.2 Hz and rabbit myocytes were paced at 0.5 Hz or 1.0 Hz for these studies. Recordings were made prior to application of each peptide concentration, the protein kinase C (PKC) inhibitor bisindolylmaleimide-1, (bis-1; CalBiochem/EMD, NJ, US), or media only (control, C) and at 1, 3, 5, 10 and 15 minutes after application of peptide, bis-1, or media. Signal averaged data were analyzed to determine resting sarcomere length, shortening amplitude (peak shortening), shortening rate (departure velocity), and re-lengthening rate (return velocity), as previously described (Westfall, M. V. Et al. (1997), Westfall, M. V. and Borton, A. R. (2003)), in 7-20 myocytes from 3-4 rats for each peptide concentration, bis-1, and media.

CC(C)C[C@H](NC(=O)[C@H](Cc1ccccc1)NC(=O)[C@@H](NC(=O)[C@H](Cc1c[nH]cn1)NC(=O)[C@H](CC(=O)O)NC(=O)[C@@H](NC(=O)[C@H](CC(=O)O)NC(=O)[C@@H](N)[C@@H](C)O)C(C)C)C(C)C)C(=O)N[C@@H](CCCNC(=N)N)C(=O)N[C@@H](Cc1ccccc1)C(N)=O [DMS] (H-TDVDHVFLRF-NH2; N-terminus assumed)
time effects were sustained (D. melanogaster heart; 10^−6 M and 10^−7 M): 3 to 5 min
time to return to approximately basal contraction rate (D. melanogaster heart; 10^−6 M and 10^−7 M): ≤ 30 min
heart rate, % of the basal contraction rate (D. melanogaster heart; 10^−6 M, pupae): 25±11%
heart rate, % of the basal contraction rate (D. melanogaster heart; 10^−7 M, pupae): 25±7%
time to return to approximately basal contraction rate (D. melanogaster heart; 10^−8 M and 10^−9 M): about 5 minutes
heart rate, % of the basal contraction rate (D. melanogaster heart; 10^−10 M, pupae): 77±4%
time to maximal effect on heart rate (D. melanogaster heart; after microinjection, pupae): ≤ 1 min
EC50 (D. melanogaster heart): 3 nM
responses on heart contractions in larvae and in adults (D. melanogaster heart; similar range of concentrations, larvae and adults): less robust but significant responses
time over which effects were observed (D. melanogaster heart; typical, 10^−8 M and 10^−9 M): 2 to 3 min
animals with cardiac arrest (Protophormia terraenovae; 10 μM, 1 μM, and 0.1 ηM, n=10 at each concentration): 100%
animals with cardiac arrest (Protophormia terraenovae; lower concentrations): ~50%

CC(C)C[C@H](NC(=O)[C@H](Cc1ccccc1)NC(=O)[C@@H](NC(=O)[C@H](Cc1c[nH]cn1)NC(=O)[C@H](CC(=O)O)NC(=O)[C@@H](NC(=O)[C@H](Cc1ccc(C(=O)c2ccccc2)cc1)NC(=O)[C@@H](NC(=O)[C@@H](N)Cc1ccc(O)cc1)[C@@H](C)O)C(C)C)C(C)C)C(=O)N[C@@H](CCCNC(=N)N)C(=O)N[C@@H](Cc1ccccc1)C(N)=O [Y-[Bpa2]DMS] (H-YT[Bpa]VDHVFLRF-NH2; N-terminus assumed)
EC50 (D. melanogaster heart): 0.13 nM

CN(C)CCCn1cc(C2=C(c3c[nH]c4ccccc34)C(=O)NC2=O)c2ccccc21 [bis-1, bisindolylmaleimide-1, reference compound]
effect of inhibitor on the influence of 10^−8 M hRFRP-1 on shortening amplitude, shortening and re-lengthening rates ([1]; 500 ηM inhibitor, 15 minutes): largely blocked

AFLRFamide (AFLRF-NH2)
effect on fly heart rate / contractility (in words) (D. melanogaster heart): capable of not only binding, but exerting an effect on cardiac contractility

FANLPLRFamide (FANLPLRF-NH2)
ability to bind and affect myocyte contractile function [1]: in a manner similar to the parent peptide hRFRP-1

FLRFamide (FLRF-NH2)
effect on fly heart rate / contractility (in words) (D. melanogaster heart): DMS antagonist

KGGFSFRFamide (KGGFSFRF-NH2; listed as Rattus norvegicus) [26RFa(19-26), reference compound]
% Change baseline SL ([1]; 15 minutes): −0.4 ± 0.2%
% Change dep v (shortening rate) ([1]; 15 minutes): −5.3 ± 5.6%
% Change peak h (shortening amplitude) ([1]; 15 minutes): −7.7 ± 4.8%
% Change ret v (re-lengthening rate) ([1]; 15 minutes): −8.1 ± 5.0%

LAEELSSYSRRKGGFSFRFamide (LAEELSSYSRRKGGFSFRF-NH2) [26RFa(8-26), reference compound]
% Change baseline SL ([1]; 15 minutes): −0.04 ± 0.1%
% Change dep v (shortening rate) ([1]; 15 minutes): −6.0 ± 4.4%
% Change peak h (shortening amplitude) ([1]; 15 minutes): −4.3 ± 5.7%
% Change ret v (re-lengthening rate) ([1]; 15 minutes): −7.3 ± 6.3%

LPLRFamide (LPLRF-NH2)
ability to bind and affect myocyte contractile function [1]: in a manner similar to the parent peptide hRFRP-1

MP(Bpa)SFANLPLRFamide (MP[Bpa]SFANLPLRF-NH2; N-terminus assumed; SMILES CSCC[C@H](N)C(=O)N1CCC[C@H]1C(=O)N[C@@H](Cc1ccc(C(=O)c2ccccc2)cc1)C(=O)N[C@@H](CO)C(=O)N[C@@H](Cc1ccccc1)C(=O)N[C@@H](C)C(=O)N[C@@H](CC(N)=O)C(=O)N[C@@H](CC(C)C)C(=O)N1CCC[C@H]1C(=O)N[C@@H](CC(C)C)C(=O)N[C@@H](CCCNC(=N)N)C(=O)N[C@@H](Cc1ccccc1)C(N)=O) [[Bpa3]hRFRP-1]
character relative to hRFRP-1 on myocyte contractile function (agonist, antagonist, reverse agonist; in words) [1]: increases cardiac function

PHSFANLPLRFamide (PHSFANLPLRF-NH2)
character relative to hRFRP-1 on myocyte contractile function (agonist, antagonist, reverse agonist; in words) [1]: super-agonist

PKI-(Myr-14-22)-amide (Myristoyl-SGRTGRRNA-NH2; SMILES CCCCCCCCCCCCCC(=O)N[C@@H](CO)C(=O)NCC(=O)N[C@@H](CCCNC(=N)N)C(=O)N[C@H](C(=O)NCC(=O)N[C@@H](CCCNC(=N)N)C(=O)N[C@@H](CCCNC(=N)N)C(=O)N[C@@H](CC(N)=O)C(=O)N[C@@H](C)C(N)=O)[C@@H](C)O; UniProt P61925 14-22, looked up, fragment) [reference compound]
effect of inhibitor on the activity of hRFRP-1 ([1]; isolated ventricular cardiac myocytes): modifies the activity of hRFRP-1

PQRFamide (PQRF-NH2)
ability to bind and affect myocyte contractile function [1]: in a manner similar to the parent peptide hRFRP-1

TDVDAVFLRFamide (TDVDAVFLRF-NH2) [[A5]DMS]
effect on fly heart rate / contractility (in words) (D. melanogaster heart): increase heart rate

TDVDHAFLRFamide (TDVDHAFLRF-NH2) [[A6]DMS]
effect on fly heart rate / contractility (in words) (D. melanogaster heart): increase heart rate

VDHVFLRFamide (VDHVFLRF-NH2)
effect on fly heart rate / contractility (in words) (D. melanogaster heart): activity similar to the parent DMS peptide

VFLRFamide (VFLRF-NH2)
effect on fly heart rate / contractility (in words) (D. melanogaster heart): capable of not only binding, but exerting an effect on cardiac contractility

VPHSAANLPLRFamide (VPHSAANLPLRF-NH2; listed as Rattus norvegicus) [rRFRP-1]
% Change baseline SL ([1]; 15 minutes): −0.3 ± 0.1%
% Change dep v (shortening rate) ([1]; 15 minutes): −22.1±6.0%
% Change peak h (shortening amplitude) ([1]; 15 minutes): −17.7±4.3%
% Change ret v (re-lengthening rate) ([1]; 15 minutes): −25.5±3.9%

YMPIISFANLPLRF-NH2 [Y-hRFRP-1]
character relative to hRFRP-1 on myocyte contractile function (agonist, antagonist, reverse agonist; in words) [1]: hRFRP-1 agonist

[A9]hRFRP-1: parent hRFRP-1 peptide where the 9th amino acid is replaced by an alanyl residue (MPHSFANLALRF-NH2; listed as Homo sapiens)
peak shortening (peak h) compared with unsubstituted hRFRP-1 ([1]; 10^−8M alanine analogs): significantly different
relaxation (ret v) compared with unsubstituted hRFRP-1 ([1]; 10^−8M alanine analogs): significantly different

— patent publication US9527889B2, “RFamide-related peptides and methods thereof” (THE REGENTS OF THE UNIVERSITY OF MICHIGAN, priority 2010, dated 2016)
